Measurements as given in patent US10688153B2, “Peptides and method for treatment of cardiac arrest” (THE BOARD OF TRUSTEES OF THE UNIVERSITY OF ILLINOIS, priority 2015, dated 2020).
Ends that are not written are not given here.

Experiments:
mouse model of SCA [1] = experiment: Blood sorbitol and taurine concentrations in mouse model of SCA; assay type: in vivo
Source text: Metabolism alteration and energy production are critical outcomes following SCA. Using a mouse model of SCA (Li, et al. (2015) Am. J. Physiol. Heart Circ. Physiol. 308:H1414-22), several metabolic compounds were identified as diagnostic markers for use in guiding the selection of treatment protocols (e.g., active cooling, therapeutic hypothermia, or modified PDZ binding domain peptide therapies).

PTEN = PTEN (Homo sapiens, UniProt P60484); conditions: cited from earlier work
cell death = conditions: Zhu et al. 2014, cited from earlier work
mouse model of SCA [2] = conditions: Li et al. 2015; cited from earlier work
C57BL6 mice [3] = experiment: Potassium-induced SCA protocol, nicotinamide during CPR plus TAT-PTEN9c after ROSC (Example 3); assay type: in vivo, mouse; conditions: about 12 minute down time
Method: The benefit of co-administration of nicotinamide (NAM) with TAT-PTEN9c was evaluated. C57BL6 mice were subjected to an established potassium-induced 8-minute SCA protocol. Nicotinamide (Vitamin B3) was administered during CPR and TAT-PTEN9c was administered after ROSC with about a 12 minute down time for each group.

[4] = tested on: Akt phosphorylation in mouse cardiomyocytes; experiment: Western blot of Akt phosphorylation in mouse cardiomyocytes exposed to H2O2 or IGF-1; assay type: cell-based
Source text: (§1) Mouse cardiomyocytes were isolated from 1-3 day old mouse pups according to known methods (Zhu, et al. (2014) PLoS One 9:e95622). Western blot analysis was used to determine the efficacy of a representative peptide of the invention (TAT-PTEN9c) for enhancing Akt phosphorylation in mouse cardiomyocytes exposed to oxidant (H2O2) or IGF-1. C57BL6 mice were subjected to an established potassium-induced 8-minute SCA protocol (Li, et al. (2015) Am. J. Physiol. Heart Circ. Physiol. 308:H1414-22). Mean arterial blood pressure (MAP), end-tidal CO2 (EtCO2), body temperature and electrocardiogram (ECG) were recorded until […] after successful cardiopulmonary resuscitation (CPR). TAT-PTEN9c (7.5 mg/kg) or saline was given intravenously (IV) immediately after ROSC. A mouse survival curve was generated by Kaplan-Meyer analysis. IV administration of TAT-GFP was used to measure the kinetics of heart and brain tissue TAT protein delivery.

C57BL6 mice [5] = experiment: Potassium-induced 8-minute SCA protocol, peptide IV immediately after ROSC (Example 1); assay type: in vivo, mouse
Source text: as §1

C57BL6 mice [6] = experiment: Potassium-induced 8-minute SCA protocol, timing of administration during CPR or after ROSC (Example 2); assay type: in vivo, mouse; conditions: for MAP: 7.5 mg/kg IV administered after ROSC
Method: To determine timing of modified peptide administration, TAT-PTEN9c was administrated during CPR or after ROSC. C57BL6 mice were subjected to an established potassium-induced 8-minute SCA protocol (Li, et al. (2015) Am. J. Physiol. Heart Circ. Physiol. 308:H1414-22). Mean arterial blood pressure (MAP) was recorded until 4 hours after successful CPR. TAT-PTEN9c (7.5 mg/kg) or saline (NS) was given intravenously (IV) during CPR and immediately after ROSC.

[7] = 240 minutes, 7.5 mg/kg IV immediately after ROSC

PTEN, sequence (P60484 whole entry, species assumed): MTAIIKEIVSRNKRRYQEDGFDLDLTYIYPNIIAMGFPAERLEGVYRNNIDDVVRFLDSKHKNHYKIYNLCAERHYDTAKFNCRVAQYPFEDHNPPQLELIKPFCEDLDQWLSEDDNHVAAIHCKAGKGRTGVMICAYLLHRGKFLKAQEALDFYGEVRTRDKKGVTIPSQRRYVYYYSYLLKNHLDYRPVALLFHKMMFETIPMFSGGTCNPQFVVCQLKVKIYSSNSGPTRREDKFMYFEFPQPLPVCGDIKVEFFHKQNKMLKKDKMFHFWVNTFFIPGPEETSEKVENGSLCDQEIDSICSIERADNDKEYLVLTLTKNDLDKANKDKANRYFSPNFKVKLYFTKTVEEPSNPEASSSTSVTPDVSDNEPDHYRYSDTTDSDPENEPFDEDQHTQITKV

O=C(O)c1ncccc1O.O=C(O)c1ncccc1O.[O]=[V][O-] [VO-OHpic]
blood sorbitol concentration (mouse model of SCA [1]): reduced
blood taurine concentration (mouse model of SCA [1]): reduced
inhibition of PTEN (PTEN): potent inhibition
reduction in cell death (cell death; I/R injury): almost four-fold reduction
phosphorylated Akt (cell death): significant increase
recovery and survival (mouse model of SCA [2]): improved recovery and survival

NC(=O)c1cccnc1 [nicotinamide]
survival time of all mice (C57BL6 mice [3]): less than 1 hours

YGRKKRRQRRRDQHSQITKV (not fully specified (C-terminus)) [TAT-PTEN9c, 20-residue peptide: Tat transduction domain plus C-terminal 9 residues of mouse PTEN]
time to Akt activation after administration ([4]; FIG. 1C): ≤ 10 min
Akt activation in response to H2O2 ([4]; H2O2, concentration-dependent, FIG. 1A): enhances Akt activation
Akt activation in response to IGF-1 ([4]; IGF-1, concentration-dependent, FIG. 1B): enhances Akt activation
brain tissue sorbitol content (C57BL6 mice [5]; 15 (R15) and 30 (R30) minutes after ROSC, vs saline control (NS), FIG. 3): significantly decreased
EtCO2 (C57BL6 mice [5]; [7]): 36.2 ± 6.7 mmHg
Heart Rate (C57BL6 mice [5]; [7]): 502.0 ± 62.2 bpm
MAP (C57BL6 mice [5]; [7]): 52.7 ± 9.3 mmHg
Survival (%) (C57BL6 mice [5]; [7]): 66.7%
survival of mice after cardiac arrest (C57BL6 mice [5]; administered immediately after ROSC, vs saline control, FIG. 4): significantly improves survival
resuscitation rate (C57BL6 mice [6]; 7.5 mg/kg IV administered during CPR): no improvement
MAP (C57BL6 mice [6]; 30 minutes after ROSC): 65.2±1.1 mmHg
MAP (C57BL6 mice [6]; 4 hours after ROSC, p<0.05 vs NS): 49.9±0.7 mmHg
